Reference: patent US9308187B2, “Adhesive patch comprising diclofenac sodium” (HISAMITSU PHARMACEUTICAL CO., INC., priority 2012, dated 2016)
Like-named read-outs stand apart in the source and are kept apart here.

Assay: Solubilities in a variety of solubilizers
Format: physicochemical
Settings: organic solvent or mixture
Experimental: Thus, in order to search for components which suppress the time-dependent crystallization of diclofenac and diclofenac sodium and which can comprise diclofenac sodium in the adhesive layer at a high concentration (3% by mass or greater) of diclofenac, the solubilities of diclofenac and diclofenac sodium were measured in a variety of solubilizers.

Measured: solubility

O=C(O)Cc1ccccc1Nc1c(Cl)cccc1Cl [diclofenac]
≥ 100 mg/mL: N-methylpyrrolidone (NMP), solvent N-methylpyrrolidone, read-out: solubility in N-methylpyrrolidone (NMP) | dimethyl sulfoxide (DMSO), solvent dimethyl sulfoxide, read-out: solubility in dimethyl sulfoxide (DMSO) | dipropylene glycol (DPG), solvent dipropylene glycol, read-out: solubility in dipropylene glycol (DPG) | polyethylene glycol (PEG-400), solvent polyethylene glycol, read-out: solubility in polyethylene glycol (PEG-400)
